Data reported in ChEMBL document CHEMBL5030544, “Synthesis, anti-microbial, toxicity and molecular docking studies of N-nitroso-N-phenylhydroxylamine (cupferron) and its derivatives” (Bioorg Med Chem Lett, 2021).
Calls of active or inactive are those of the source. No cut-off for these calls is given here.

Assays:
Assay type in all cases: functional
Staphylococcus aureus [1] = experiment: Antibacterial activity against Staphylococcus aureus […] assessed as zone of inhibition at 15 mg/ml; conditions: for zone of inhibition at 15000 µg/mL: read-out: IZ
Corynebacterium [2] = experiment: Antibacterial activity against Corynebacterium ATCC 49368 assessed as bacterial growth inhibition
Corynebacterium [3] = experiment: Antibacterial activity against Corynebacterium ATCC 49368 assessed as zone of inhibition at 10 mg/ml
Streptococcus pyogenes [4] = experiment: Antibacterial activity against Streptococcus pyogenes ATCC 19615 assessed as bacterial growth inhibition
Corynebacterium [5] = experiment: Antibacterial activity against Corynebacterium ATCC 49368 assessed as zone of inhibition at 15 mg/ml; conditions: for zone of inhibition at 15000 µg/mL: read-out: IZ
Salmonella typhi [6] = experiment: Antibacterial activity against Salmonella typhi ATCC 6539 assessed as bacterial growth inhibition
Staphylococcus aureus [7] = experiment: Antibacterial activity against Staphylococcus aureus […] assessed as bacterial growth inhibition
Staphylococcus aureus [8] = experiment: Antibacterial activity against Staphylococcus aureus […] assessed as zone of inhibition at 5 mg/ml
Streptococcus pyogenes [9] = experiment: Antibacterial activity against Streptococcus pyogenes ATCC 19615 assessed as zone of inhibition at 10 mg/ml; conditions: for zone of inhibition at 10000 µg/mL: read-out: IZ
Streptococcus pyogenes [10] = experiment: Antibacterial activity against Streptococcus pyogenes ATCC 19615 assessed as zone of inhibition at 5 mg/ml; conditions: for zone of inhibition at 5000 µg/mL: read-out: IZ
Klebsiella pneumoniae [11] = experiment: Antibacterial activity against Klebsiella pneumoniae ATCC 13883 assessed as bacterial growth inhibition
Corynebacterium [12] = experiment: Antibacterial activity against Corynebacterium ATCC 49368 assessed as zone of inhibition at 5 mg/ml; conditions: read-out: IZ
Klebsiella pneumoniae [13] = experiment: Antibacterial activity against Klebsiella pneumoniae ATCC 13883 assessed as zone of inhibition at 10 mg/kg; conditions: read-out: IZ
Bacillus subtilis [14] = experiment: Antibacterial activity against Bacillus subtilis ATCC 23857 assessed as zone of inhibition at 10 mg/ml; conditions: for zone of inhibition at 10000 µg/mL: read-out: IZ
Bacillus subtilis [15] = experiment: Antibacterial activity against Bacillus subtilis ATCC 23857 assessed as zone of inhibition at 15 mg/ml; conditions: for zone of inhibition at 15000 µg/mL: read-out: IZ
Bacillus subtilis [16] = experiment: Antibacterial activity against Bacillus subtilis ATCC 23857 assessed as zone of inhibition at 5 mg/ml; conditions: for zone of inhibition at 5000 µg/mL: read-out: IZ
Bacillus subtilis [17] = experiment: Antibacterial activity against Bacillus subtilis ATCC 23857 assessed as bacterial growth inhibition
Escherichia coli = experiment: Antibacterial activity against Escherichia coli ATCC 25922 assessed as bacterial growth inhibition
Streptococcus pyogenes [18] = experiment: Antibacterial activity against Streptococcus pyogenes ATCC 19615 assessed as zone of inhibition at 15 mg/ml; conditions: for zone of inhibition at 15000 µg/mL: read-out: IZ
Pseudomonas aeruginosa [19] = experiment: Antibacterial activity against Pseudomonas aeruginosa ATCC 27853 assessed as zone of inhibition at 10 mg/ml; conditions: read-out: IZ
Klebsiella pneumoniae [20] = experiment: Antibacterial activity against Klebsiella pneumoniae ATCC 13883 assessed as zone of inhibition at 15 mg/kg; conditions: read-out: IZ
Staphylococcus aureus [21] = experiment: Antibacterial activity against Staphylococcus aureus […] assessed as zone of inhibition at 10 mg/ml; conditions: for zone of inhibition at 10000 µg/mL: read-out: IZ
Pseudomonas aeruginosa [22] = experiment: Antibacterial activity against Pseudomonas aeruginosa ATCC 27853 assessed as zone of inhibition at 15 mg/ml; conditions: read-out: IZ
Salmonella typhi [23] = experiment: Antibacterial activity against Salmonella typhi ATCC 6539 assessed as zone of inhibition at 15 mg/kg; conditions: Salmonella enterica subsp. enterica serovar Typhi
Salmonella typhi [24] = experiment: Antibacterial activity against Salmonella typhi ATCC 6539 assessed as zone of inhibition at 10 mg/kg; conditions: Salmonella enterica subsp. enterica serovar Typhi
[25] = Salmonella enterica subsp. enterica serovar Typhi

Row | Compound | zone of inhibition at 15000 µg/mL (Staphylococcus aureus [1]) [mm] | MIC (Corynebacterium [2]) [µg/mL] | MIC (Streptococcus pyogenes [4]) [µg/mL] | zone of inhibition at 15000 µg/mL (Corynebacterium [5]) [mm] | MIC (Salmonella typhi [6]; [25]) | MIC (Staphylococcus aureus [7]) [µg/mL] | zone of inhibition at 10000 µg/mL (Streptococcus pyogenes [9]) [mm] | zone of inhibition at 5000 µg/mL (Streptococcus pyogenes [10]) [mm] | MIC (Klebsiella pneumoniae [11]) | zone of inhibition at 10000 µg/mL (Bacillus subtilis [14]) [mm] | zone of inhibition at 15000 µg/mL (Bacillus subtilis [15]) [mm] | zone of inhibition at 5000 µg/mL (Bacillus subtilis [16]) [mm] | MIC (Bacillus subtilis [17]) [µg/mL] | MIC (Escherichia coli) | zone of inhibition at 15000 µg/mL (Streptococcus pyogenes [18]) [mm] | zone of inhibition at 10000 µg/mL (Staphylococcus aureus [21]) [mm] | other results
1 | N.O=NN(O)c1ccc(CCl)cc1 | 20 | 16 | 8 | 17 | inactive | 16 | 12 | 10 | inactive | 14 | 18 | 10 | 16 | inactive | 18 | 12 | zone of inhibition at 10000 µg/mL (Corynebacterium [3]; read-out: IZ): 14 mm; zone of inhibition at 5000 µg/mL (Staphylococcus aureus [8]; read-out: IZ): 8 mm; zone of inhibition at 5000 µg/mL (Corynebacterium [12]): 13 mm; zone of inhibition at 10 mg/kg (Klebsiella pneumoniae [13]): 7 mm; zone of inhibition at 10000 µg/mL (Pseudomonas aeruginosa [19]): 10 mm; zone of inhibition at 15 mg/kg (Klebsiella pneumoniae [20]): 10 mm; zone of inhibition at 15000 µg/mL (Pseudomonas aeruginosa [22]): 15 mm
2 | N.O=NN(O)c1ccccc1 | 12 | 20 | 20 | 10 | – | 20 | 10 | 8 | inactive | 15 | 17 | 10 | 16 | inactive | 20 | 9 | MIC (Salmonella typhi [6]; Salmonella enterica): 20 µg/mL; MIC (Staphylococcus aureus [8]): inactive
3 | GENTAMICIN | – | – | – | – | 16 µg/mL | 8 | – | – | – | – | – | – | – | – | – | – | inhibition zone (IZ) (Staphylococcus aureus [1]): 22 mm; inhibition zone (IZ) (Corynebacterium [3]): 10 mm; inhibition zone (IZ) (Corynebacterium [5]): 23 mm; inhibition zone (IZ) (Staphylococcus aureus [8]): 10 mm; inhibition zone (IZ) (Streptococcus pyogenes [9]): 13 mm; inhibition zone (IZ) (Streptococcus pyogenes [10]): 3 mm; inhibition zone (IZ) (Bacillus subtilis [14]): 10 mm; inhibition zone (IZ) (Bacillus subtilis [15]): 24 mm; inhibition zone (IZ) (Bacillus subtilis [16]): 5 mm; inhibition zone (IZ) (Streptococcus pyogenes [18]): 25 mm; inhibition zone (IZ) (Salmonella typhi [23]): 26 mm; inhibition zone (IZ) (Staphylococcus aureus [21]): 11 mm; inhibition zone (IZ) (Salmonella typhi [24]): 12 mm
